From DBAASP
Converted amounts (≈) assume the structure as drawn. Values belong to the compound of their own block, whether it stands above or below them.

Tests used:
Test in all cases: ≥ marks a high value that may be exact or a test limit, other limits are often not marked, values filed in µg/mL are converted to µM
[1] = test system: Staphylococcus epidermidis ATCC 12228
[2] = test system: Staphylococcus epidermidis 154
[3] = test system: Escherichia coli ATCC 25922
[4] = test system: Staphylococcus aureus AB6538
Escherichia coli AB94012 = test system: Escherichia coli AB94012
[5] = test system: Pseudomonas aeruginosa ATCC 9027
[6] = test system: Pseudomonas aeruginosa ATCC 27853
Staphylococcus aureus = test system: Staphylococcus aureus
[7] = test system: Micrococcus luteus ATCC 9341
[8] = test system: Candida albicans ATCC 36232
[9] = test system: Proteus vulgaris ATCC 6380
[10] = test system: Staphylococcus aureus ATCC 6538
[11] = test system: Escherichia coli ATCC 2592
[12] = test system: Shigella flexneri ATCC 203
[13] = test system: Staphylococcus haemolyticus
Klebsiella pneumoniae = test system: Klebsiella pneumoniae
Citrobacter freundii = test system: Citrobacter freundii
[14] = test system: Salmonella enterica subsp. enterica serovar Paratyphi A
[15] = test system: Salmonella enterica subsp. enterica serovar Typhimurium C77-31
Escherichia coli UB1005 = test system: Escherichia coli UB1005
[16] = test system: Streptococcus thermophilus YM-C
[17] = test system: Staphylococcus aureus ATCC 25923
Escherichia coli 078 = test system: Escherichia coli 078
[18] = test system: Salmonella enterica subsp. enterica serovar Pullorum ATCC 7913
Streptococcus agalactiae = test system: Streptococcus agalactiae
[19] = test system: Staphylococcus aureus ATCC 29213
[20] = test system: Lacticaseibacillus rhamnosus 7469
[21] = test system: Streptococcus agalactiae CICC 10465
[22] = test system: Salmonella enterica subsp. enterica serovar Typhimurium ATCC 14028
[23] = test system: Candida albicans KACC 30071
[24] = test system: Pseudomonas aeruginosa KACC 10259
[25] = test system: Escherichia coli KACC 1039
[26] = test system: Staphylococcus aureus KACC 10196
[27] = test system: Klebsiella pneumoniae KCTC 2242
[28] = test system: Enterococcus faecalis KACC 11304
[29] = test system: Bacillus subtilis KACC 10196
[30] = test system: Staphylococcus aureus NBRC 12732
[31] = test system: Escherichia coli NBRC 14237
[32] = test system: Saccharomyces cerevisiae NBRC 10217

Compound: CC(C)C[C@H](NC(=O)[C@H](Cc1ccc(O)cc1)NC(=O)[C@H](Cc1ccc(O)cc1)NC(=O)CNC(=O)[C@H](Cc1c[nH]c2ccccc12)NC(=O)[C@H](CO)NC(=O)[C@H](CO)NC(=O)[C@H](Cc1c[nH]c2ccccc12)NC(=O)[C@H](CC(C)C)NC(=O)[C@H](CCCCN)NC(=O)[C@@H](NC(=O)[C@@H](NC(=O)[C@H](CC(C)C)NC(=O)[C@@H](N)CC(=O)O)[C@@H](C)O)[C@@H](C)O)C(=O)NCC(=O)N[C@@H](CCCCN)C(=O)N[C@@H](CCCCN)C(=O)N[C@@H](C)C(=O)N[C@@H](CCCN=C(N)N)C(=O)N[C@@H](Cc1c[nH]c2ccccc12)C(=O)N[C@@H](CC(N)=O)C(=O)N[C@@H](CC(C)C)C(=O)N[C@@H](CCCCN)C(=O)N[C@@H](Cc1cnc[nH]1)C(=O)N1CCC[C@H]1C(=O)N[C@@H](Cc1ccc(O)cc1)C(=O)N[C@H](C(=O)N[C@@H](CCC(N)=O)C(=O)N[C@@H](Cc1ccccc1)C(=O)O)C(C)C [DLTTKLWSSWGYYLGKKARWNLKHPYVQF]
- MIC [1]: 12.5 µM (≈ 44.8 µg/mL)
- MIC [2]: 25 µM (≈ 89.7 µg/mL)

Compound: CC[C@H](C)[C@H](NC(=O)[C@H](CCCCN)NC(=O)[C@@H]1CCCN1C(=O)[C@H](CC(C)C)NC(=O)[C@@H](NC(=O)[C@H](CCCCN)NC(=O)[C@H](CCCCN)NC(=O)[C@H](CC(C)C)NC(=O)[C@@H](NC(=O)[C@H](CCCCN)NC(=O)[C@H](CCCCN)NC(=O)[C@H](CC(C)C)NC(=O)[C@H](CC(C)C)NC(=O)[C@H](CCCCN)NC(=O)[C@H](CC(C)C)NC(=O)[C@@H](N)Cc1ccccc1)C(C)C)C(C)C)C(=O)N[C@@H](Cc1ccccc1)C(=O)N[C@@H](CCCCN)C(N)=O [FLKLLKKVLKKVLPKIFK]
- MIC [3]: 2.86 µM (≈ 6.25 µg/mL)
- MIC [4]: 2.86 µM (≈ 6.25 µg/mL)
- MIC (Escherichia coli AB94012): 2.86 µM (≈ 6.25 µg/mL)
- MIC [5]: 5.72 µM (≈ 12.5 µg/mL)
- MIC [6]: 5.72 µM (≈ 12.5 µg/mL)

Compound: CC(C)[C@H](NC(=O)[C@H](CCCCN)NC(=O)[C@@H](N)CCCCN)C(=O)N[C@H](C(=O)N[C@@H](Cc1ccccc1)C(=O)N[C@@H](CCCCN)C(=O)N[C@@H](Cc1ccccc1)C(=O)N[C@@H](CCCCN)C(=O)N[C@@H](Cc1ccccc1)C(=O)N[C@@H](CCCCN)C(N)=O)C(C)C [KKVVFKFKFK]
- MIC [1]: 0.601 µM (≈ 0.779 µg/mL)
- MIC (Staphylococcus aureus): 4.81 µM (≈ 6.25 µg/mL)
- MIC [7]: 0.601 µM (≈ 0.779 µg/mL)
- MIC [8]: 0.601 µM (≈ 0.779 µg/mL)
- MIC [9]: ≥ 77 µM
- MIC [10]: 2.4 µM (≈ 3.12 µg/mL)
- MIC [5]: 2.4 µM (≈ 3.12 µg/mL)
- MIC [11]: 2.4 µM (≈ 3.12 µg/mL)
- MIC [12]: 2.4 µM (≈ 3.12 µg/mL)

Now from value to compound, other results behind:

- MIC (Klebsiella pneumoniae): 3.81 µM (≈ 6 µg/mL)
- MIC (Citrobacter freundii): 7.63 µM (≈ 12 µg/mL)
- MIC [14]: 3.81 µM (≈ 6 µg/mL)
Compound: CC(C)C[C@H](NC(=O)[C@H](CCCCN)NC(=O)[C@H](CC(C)C)NC(=O)[C@H](CCCCN)NC(=O)[C@H](CS)NC(=O)[C@H](CC(C)C)NC(=O)[C@H](Cc1c[nH]c2ccccc12)NC(=O)CNC(=O)[C@H](CCCCN)NC(=O)[C@H](CS)NC(=O)[C@@H]1CCCN1C(=O)[C@@H](N)CCCCN)C(=O)N[C@@H](CCCN=C(N)N)C(=O)O [KPCKGWLCKLKLR]
- MIC [13]: 1.91 µM (≈ 3 µg/mL)

- MIC [15]: ≥ 64 µM
- MIC [3]: > 64 µM
- MIC (Escherichia coli UB1005): ≥ 64 µM
- MIC [16]: ≥ 64 µM
- MIC [1]: > 64 µM
- MIC [17]: > 64 µM
- MIC (Escherichia coli 078): ≥ 64 µM
- MIC [18]: ≥ 64 µM
- MIC (Streptococcus agalactiae): ≥ 64 µM
- MIC [19]: > 64 µM
- MIC [20]: ≥ 64 µM
- MIC [21]: ≥ 64 µM
- MIC [22]: > 64 µM
- MIC [6]: > 64 µM
Compound: CC[C@H](C)[C@H](NC(=O)CNC(=O)[C@@H](NC(=O)[C@@H](N)CC(C)C)[C@@H](C)CC)C(=O)N[C@H](C(=O)N[C@@H](CC(=O)O)C(=O)NCC(=O)N[C@H](C(=O)N[C@@H](CCCCN)C(=O)N[C@@H](CCC(=O)O)C(=O)N[C@@H](CCCN=C(N)N)C(=O)N[C@@H](CCCCN)C(=O)N[C@@H](CCCCN)C(=O)N[C@@H](CCCN=C(N)N)C(=O)N[C@@H](CCCN=C(N)N)C(=O)N[C@@H](CCCN=C(N)N)C(N)=O)C(C)C)[C@@H](C)CC [LIGIIDGVKERKKRRR]

- MIC [23]: 4 µM (≈ 7.76 µg/mL)
- MIC [24]: 1 µM (≈ 1.94 µg/mL)
- MIC [25]: 1 µM (≈ 1.94 µg/mL)
- MIC [26]: 4 µM (≈ 7.76 µg/mL)
- MIC [27]: 1 µM (≈ 1.94 µg/mL)
- MIC [28]: 4 µM (≈ 7.76 µg/mL)
- MIC [29]: 1 µM (≈ 1.94 µg/mL)
Compound: CC[C@H](C)[C@H](NC(=O)[C@H](CO)NC(=O)[C@@H](NC(=O)[C@H](CCCCN)NC(=O)[C@H](Cc1ccccc1)NC(=O)[C@@H]1CCCN1C(=O)[C@H](CCCCN)NC(=O)[C@H](CCCCN)NC(=O)[C@H](Cc1ccccc1)NC(=O)[C@@H](NC(=O)[C@H](CCCCN)NC(=O)[C@H](Cc1c[nH]c2ccccc12)NC(=O)[C@@H](N)CCCN=C(N)N)[C@@H](C)CC)[C@@H](C)CC)C(=O)N[C@@H](Cc1cnc[nH]1)C(=O)N[C@@H](CC(C)C)C(N)=O [RWKIFKKPFKISIHL]

- MIC [30]: 3.12 µM (≈ 6.25 µg/mL)
- MIC [31]: 3.12 µM (≈ 6.25 µg/mL)
- MIC [32]: 12.5 µM (≈ 25 µg/mL)
Compound: CC(C)C[C@H](NC(=O)[C@H](CO)NC(=O)[C@H](CO)NC(=O)[C@H](CCCN=C(N)N)NC(=O)[C@H](CCCN=C(N)N)NC(=O)[C@H](CCCN=C(N)N)NC(=O)[C@H](CO)NC(=O)[C@H](CC(C)C)NC(=O)[C@H](Cc1c[nH]c2ccccc12)NC(=O)[C@@H](N)Cc1c[nH]c2ccccc12)C(=O)N[C@@H](Cc1ccccc1)C(=O)N[C@@H](Cc1ccc(O)cc1)C(=O)N[C@@H](Cc1c[nH]c2ccccc12)C(=O)N[C@@H](CCCN=C(N)N)C(=O)O [WWLSRRRSSLFYWR]
